Results on six compounds are retold here after US20220389355A1, “CELL AGGREGATE, PRODUCING METHOD FOR MANUFACTURING CELL AGGREGATE, PRODUCING KIT FOR CELL AGGREGATE, AND CHEMICAL COMPOUND EVALUATING METHOD USING CELL AGGREGATE” (THE JAPAN WOOL TEXTILE CO., LTD., priority 2019, published 2022).

Structures are written as SMILES. Read-outs that look alike come from different tables or passages of the source.

Data set [1] concerns cardiomyocyte multicellular construct (human iPS cell derived cardiomyocytes). The experiment in a line: Example 8: calcium imaging, ratio of specimens with arrhythmia waveform. The conditions noted are these: for Ratio of specimens that exhibited the calcium ion signal waveform corresponding to arrhythmia, Dose 1 (%): Dose 1 of Table 5: azithromycin 1 μM, chloroquine or hydroxychloroquine 0.3 μM; for Ratio of specimens that exhibited the calcium ion signal waveform corresponding to arrhythmia, Dose 1 (%) / Ratio of specimens that exhibited the calcium ion signal waveform corresponding to arrhythmia, Dose 2 (%) / Ratio of specimens that exhibited the calcium ion signal waveform corresponding to arrhythmia, Dose 3 (%) / Ratio of specimens that exhibited the calcium ion signal waveform corresponding to arrhythmia, Dose 4 (%): alone or with azithromycin fixed to 3 μM; for Ratio of specimens that exhibited the calcium ion signal waveform corresponding to arrhythmia, Dose 2 (%): Dose 2 of Table 5: azithromycin 3 μM, chloroquine or hydroxychloroquine 1 μM; for Ratio of specimens that exhibited the calcium ion signal waveform corresponding to arrhythmia, Dose 3 (%): Dose 3 of Table 5: azithromycin 10 μM, chloroquine or hydroxychloroquine 3 μM; for Ratio of specimens that exhibited the calcium ion signal waveform corresponding to arrhythmia, Dose 4 (%): Dose 4 of Table 5: chloroquine or hydroxychloroquine 10 μM, azithromycin alone: no Dose 4 in Table 5.

For data set [2] the test system is unchanged. Kind of data set: Example 8: contractile force of cardiomyocyte multicellular construct, ratio of specimens with halved contractile force. The conditions noted are these: alone or with azithromycin fixed to 3 μM; for Ratio of specimens whose contractile force decreased to half of that before the addition, Dose 1 (%): Dose 1 of Table 5: azithromycin 1 μM, chloroquine or hydroxychloroquine 0.3 μM; for Ratio of specimens whose contractile force decreased to half of that before the addition, Dose 2 (%): Dose 2 of Table 5: azithromycin 3 μM, chloroquine or hydroxychloroquine 1 μM; for Ratio of specimens whose contractile force decreased to half of that before the addition, Dose 3 (%): Dose 3 of Table 5: azithromycin 10 μM, chloroquine or hydroxychloroquine 3 μM.

Data set [3] shares this test system.
For data set [4] the test system is unchanged. The experiment in a line: Example 7: calcium imaging evaluation of response of cardiomyocyte multicellular construct against compound. The format is cell-based. The conditions noted are these: seventh day of the culture; for Calcium ion signal waveform compared with before the addition: 1000 nM, cumulative addition, 10 minutes after addition; for Beating rate compared with before the addition: cumulative addition 1 to 1000 nM. On the procedure:
Cells were seeded and cultured in the same manner as in Example 6, except that the cells were seeded such that the seeding amount per unit area of the scaffold was 6000 cells/mm^2.
On the sixth day of the culture, the cardiomyocyte multicellular construct was placed such that a surface containing more cells faced the bottom surface of a culture dish (IWAKI Multiwell Plate, Non-treated surface for suspension cell culture 6. Well), and was then left to stand for a day. On the seventh day of the culture, a calcium indicator (EarlyTox Cardiotoxicity Kit, Molecular Devices LLC) was added to the culture medium at a volume ratio of 25/100 to fluorescently stain calcium ions in the cardiomyocytes.
The fluorescence intensities in the entire 10-fold magnified visual fields of the obtained images were plotted versus time using an analysis software CellPathfinder, Yokogawa Electric Corp.), and thus signal waveforms of calcium ions in the cardiomyocytes were obtained. Verapamil is a Ca channel antagonist having an Ikr inhibitory effect.

Data set [5] shares this test system. The experiment in a line: Example 7: contractile force and contraction-relaxation rate of cardiomyocyte multicellular construct (MUSCLEMOTION). The format is cell-based. The conditions noted are these: 1000 nM, seventh day of the culture.
In data set [6] the test system is human iPS cell derived cardiomyocyte multicellular construct. The experiment in a line: Example 5: calcium ion imaging of multicellular construct, response against isoproterenol. The conditions noted are these: 100 nM, 5 minutes after addition, fourth day of the culture; 60 bpm before the addition. The format is cell-based.
Description: Cells were seeded in the same manner as in Example 4, and a liquid culture medium was added 4 hours later to start cell culturing. On the fourth day of the culture, a calcium indicator (EarlyTox Cardiotoxicity Kit, Molecular Devices LLC.) was added to the culture medium at a volume ratio of 5/100 to fluorescently stain calcium ions in the cardiomyocytes.
Videos were captured at 20 FPS using a confocal imaging confocal imaging system (CellVoyager CQ1, Yokogawa Electric Corp.). Fluorescent areas in the obtained videos were recognized using an analysis software CellPathfinder, Yokogawa Electric Corp.), and signal waveforms of calcium ions in the cardiomyocytes were obtained by plotting the fluorescence intensities versus time.

For the compound `CC[C@H]1OC(=O)[C@H](C)[C@@H](O[C@H]2C[C@@](C)(OC)[C@@H](O)[C@H](C)O2)[C@H](C)[C@@H](O[C@@H]2O[C@H](C)C[C@H](N(C)C)[C@H]2O)[C@](C)(O)C[C@@H](C)CN(C)[C@H](C)[C@@H](O)[C@]1(C)O` [Azithromycin, azithromycin], in data set [1], the “Ratio of specimens that exhibited the calcium ion signal waveform corresponding to arrhythmia, Dose 1 (%)” value stood at 0%; the “Ratio of specimens that exhibited the calcium ion signal waveform corresponding to arrhythmia, Dose 2 (%)” value was determined as 0%; the “Ratio of specimens that exhibited the calcium ion signal waveform corresponding to arrhythmia, Dose 3 (%)” value came out at 0%; the “Ratio of specimens that exhibited the calcium ion signal waveform corresponding to arrhythmia, Dose 4 (%)” value stood at 0%. In data set [2], the “Ratio of specimens whose contractile force decreased to half of that before the addition, Dose 1 (%)” value amounted to 0%; the “Ratio of specimens whose contractile force decreased to half of that before the addition, Dose 2 (%)” value was determined as 0%; the “Ratio of specimens whose contractile force decreased to half of that before the addition, Dose 3 (%)” value came to 100%.

For the compound `CCN(CC)CCCC(C)Nc1ccnc2cc(Cl)ccc12` (stereo not drawn) [Chloroquine, chloroquine], in data set [3], the “Risk of arrhythmia (conclusion from FIG. 20 and Table 6)” value was “increase the risk of arrhythmia”.

In the case of `Cc1cccc(CCN2CCC(C(=O)c3ccc(NS(C)(=O)=O)cc3)CC2)n1` [Example E-4031], in data set [4], the “Calcium ion signal waveform compared with before the addition” value is “became flattened” and the “Beating rate compared with before the addition” value was “decreased”. Moreover, in data set [5], the “Contractile force compared with before the addition” value is given as “decreased” and the “Contraction-relaxation rate compared with before the addition” value is “decreased”.

`CCN(CCO)CCCC(C)Nc1ccnc2cc(Cl)ccc12` (stereo not drawn) [Hydroxychloroquine, hydroxychloroquine]: in data set [1], the “Ratio of specimens that exhibited the calcium ion signal waveform corresponding to arrhythmia, Dose 1 (%)” value turned out to be 0%; the “Ratio of specimens that exhibited the calcium ion signal waveform corresponding to arrhythmia, Dose 2 (%)” value turned out to be 0%; the “Ratio of specimens that exhibited the calcium ion signal waveform corresponding to arrhythmia, Dose 3 (%)” value is given as 20%; the “Ratio of specimens that exhibited the calcium ion signal waveform corresponding to arrhythmia, Dose 4 (%)” value is reported as 80%. Moreover, the “Risk of arrhythmia (conclusion from FIG. 20 and Table 6)” value in data set [1] (concentrations of Table 5) is “increase the risk of arrhythmia”. Further, in data set [2], the “Ratio of specimens whose contractile force decreased to half of that before the addition, Dose 1 (%)” value is 0%; the “Ratio of specimens whose contractile force decreased to half of that before the addition, Dose 2 (%)” value is 0%; the “Ratio of specimens whose contractile force decreased to half of that before the addition, Dose 3 (%)” value is reported as 20%. In addition, in data set [2] (Dose 4 of Table 5: chloroquine or hydroxychloroquine 10 μM), the “Ratio of specimens whose contractile force decreased to half of that before the addition, Dose 4 (%)” value is 100%.

As to `CC(C)NCC(O)c1ccc(O)c(O)c1` (stereo not drawn) [Isoproterenol, isoproterenol], in data set [4], the “Calcium ion signal waveform compared with before the addition” value is reported as “became sharper” and the “Beating rate compared with before the addition” value is “increased”. Besides, in data set [6], the “Beating rate after the addition” value amounted to 76 bpm. Besides, in data set [5], the “Contractile force compared with before the addition” value is “increased” and the “Contraction-relaxation rate compared with before the addition” value was “increased”.

As for `COc1ccc(CCN(C)CCCC(C#N)(c2ccc(OC)c(OC)c2)C(C)C)cc1OC` (stereo not drawn) [Verapamil, verapamil], in data set [4], the “Calcium ion signal waveform compared with before the addition” value was “became smaller” and the “Beating rate compared with before the addition” value is “increased”. Moreover, in data set [5], the “Contractile force compared with before the addition” value is “decreased” and the “Contraction-relaxation rate compared with before the addition” value is on record as “decreased”.
